Source: paper PMC6609550, “Blockade of the forward Na^+/Ca^2+ exchanger suppresses the growth of glioblastoma cells through Ca^2+‐mediated cell death” (British Journal of Pharmacology, 2019)

What was measured:
U87 cells [1] = experiment: Cell viability assay (Cell Counting Kit-8), U87; type: cell-based, Human; conditions: for IC50: 72 hr, CCK-8, mean ± SEM
Experimental: (§1) Cell viability was determined by using a Cell Counting Kit‐8 (Dojindo, Japan). Briefly, cells were harvested from flasks and plated in 96‐well cell culture plates at 5 × 10^3 per well and cultured overnight. […] Control cells were treated with cell culture medium and measured at the same time point as treatment groups. CCK‐8 solution (10 μl) was added to each well of the 96‐well plates, and the cultures were incubated for 30 min at 37°C. Absorbance at 450 nm was measured using an automatic microplate reader (Molecular Devices, San Jose, CA, USA).
(§2) Figure 2 Effect of the Na^+/Ca^2+ exchanger (NCX) blockers on viability of human glioblastoma cell lines. (a, b) Viability of adult glioblastoma cell lines (U87 and U251) after exposure to NCX blockers bepridil, KB‐R7943, SEA0400, SN‐6, or YM244769 at 0–100 μM for 72 hr. n = 5 independent tests per group. (c) Viability of paediatric glioblastoma cell line SF188 after 72‐hr incubation with the same NCX blockers at 0–100 μM. n = 5 independent tests per group. (d) For U87, U251, and SF188 cell lines, concentration of the NCX blockers required to produce half maximal inhibition (IC50: μM, mean ± SEM) of cell viability.

U251 cells = experiment: Cell viability assay (Cell Counting Kit-8), U251; type: cell-based, Human; conditions: for IC50: 72 hr, CCK-8, mean ± SEM
Experimental: as §1, §2

human astrocytes = experiment: Cell viability of human astrocytes; type: cell-based; conditions: 25 μM, 48 hr
Experimental: Cell viability was determined by using a Cell Counting Kit‐8 (Dojindo, Japan). Briefly, cells were harvested from flasks and plated in 96‐well cell culture plates at 5 × 10^3 per well and cultured overnight. Cells were treated with test reagents for 72 hr. Control cells were treated with cell culture medium and measured at the same time point as treatment groups. CCK‐8 solution (10 μl) was added to each well of the 96‐well plates, and the cultures were incubated for 30 min at 37°C. Absorbance at 450 nm was measured using an automatic microplate reader (Molecular Devices, San Jose, CA, USA).
Figure 8 Impact of bepridil on human astrocytes (HA) and the Na^+/Ca^2+ exchanger (NCX) isoforms in each cell line. (a) Viability of U87, U251, and SF188 cells and HA after exposure to bepridil (25 μM, 48 hr); n = 5 independent tests in each group. (b) The bands of NCX1, NCX2, and NCX3 isoforms detected by Western blot analysis in the sample of HA and glioblastoma cell lines U87, U118, A172, U251, and SF188. (c) Representative recording of the NCX currents in HA and glioblastoma cell lines. (d) Viability of U87, U251, and SF188 cells and HA after exposure to KB‐R7943 (25 μM, 48 hr). n = 5 independent tests in each group

[Ca^2+]i in U87 cells = Ca2+ imaging (Fluo-4 AM) of U87 cells; type: cell-based, Human; conditions: for Effect on [Ca2+]i level in Ca2+-free solution / Effect on intracellular Ca2+ pool and ER Ca2+ transporting: Ca2+‐free solution; for Effect on intracellular Ca2+ pool and ER Ca2+ transporting: followed by 5‐μM thapsigargin; for Effect on [Ca2+]i level: solution containing 2‐mM Ca2+, bepridil or KB‐R7943 25 or 50 μM, CB‐DMB 2 and 4 μM
Experimental: (§3) Cells were cultured in 96‐well plates at 8 × 10^3 per well and loaded with the cell membrane‐permeable Ca^2+ dye Fluo‐4 AM (5 μM) in 100‐μl HEPES‐buffered solution for 50 min. The solution contained (mM): 135 NaCl, 3 KCl, 2 CaCl2, 1 MgCl2, 10 glucose, and 10 HEPES, supplemented with 1% FBS at pH 7.4. To prepare the Ca^2+‐free solution, 2‐mM CaCl2 was replaced with 1‐mM EGTA in the HEPES‐buffered solution. The 96‐well plate containing the Fluo‐4 AM‐loaded cells was mounted in a Leica TCS SP8 confocal system (Leica Microsystems, Wetzlar, Germany). The confocal microscope armed with 488‐nm laser light was employed to excite the dynamic fluorescent signals in time and synchronously, while test regents were added to cells. To do Na^+ imaging, Fluo‐4 AM was replaced with the cell membrane‐permeable Na^+ dye Asante NaTrium Green‐2 AM (ANG‐2 AM) at 5 μM, which was excited by 514‐nm laser light. Visual inspection and fluorescent imaging were carried out at room temperature. The imaging data were analysed with the software https://leica-las-af-lite.software.informer.com/ 2.5 (Leica). The imaging traces shown are representative of at least three separate experiments; 12–18 cells were imaged in each experiment.

[Na^+]i in U87 cells = Na+ imaging (ANG-2 AM) of U87 cells; type: cell-based, Human; conditions: bepridil 50 μM, KB‐R7943 50 μM, CB‐DMB 4 μM
Experimental: as §3

U87 cells [2] = experiment: Annexin V–FITC/PI apoptosis assay of U87 cells; type: cell-based, Human; conditions: bepridil 25 μM 6–48 hr, CB‐DMB 3.5 μM 6–48 hr, KB‐R7943 25 μM 20 hr, BAPTA‐AM 10 μM 18 hr, CC‐930 10 μM, PD169316 10 μM
Experimental: U87 cells were seeded in six‐well plates (Corning, Corning, NY, USA) with 1 × 10^6 cells per well and treated with NCX blockers, BAPTA‐AM, or MAPK inhibitors. Drug treatment was performed by the person who is blinded to the experimental groups. After treatment, cells were harvested in 15‐ml tubes and washed with cold sterile PBS. After being centrifuged, cells were fixed with 70% ethanol […] at 4°C for at least 1 hr. For propidium iodide (PI) staining, cells were washed one time with PBS and then were treated with ribonuclease A (RNase; 100 μg·ml^−1) for 30 min. PI (10 μg·ml^−1) was added, and stained cells were kept in the dark at 4°C until analysis. The number of cells analysed for each sample was 10,000 events. FACS analysis was performed using the Coulter CytoFlexS flow cytometer (Beckman Coulter, CA, USA), and the percentage of cells in the G0/G1, S, and G2/M phases was determined using cell cycle analysis software, ModFit LT 5.0 (Verity Software House, Topsham, ME, USA). For the apoptosis assay, cells were harvested and washed twice with cold PBS and resuspended at a density of 1 × 10^6 cells·ml^−1 in 100 μl of binding buffer containing 5 μl of Annexin V–FITC and 5 μl of PI working solution (100 μg·ml^−1). After incubation at room temperature for 15 min in the dark, 400 μl of binding buffer was added to each sample. Apoptosis was analysed by Coulter CytoFlexS flow cytometer (Beckman Coulter) for at least 10,000 events, and data were analysed with the software, CyExpert 2.0 (Beckman Coulter).

| SMILES | Effect on growth (viability) of U87 cells (U87 cells [1]; 25 μM, 48 hr) | IC50 (U87 cells [1]; Homo sapiens, U-87 MG) | Effect on growth (viability) of U251 cells (U251 cells; 25 μM, 48 hr) | IC50 (U251 cells; Homo sapiens, U-251) | Cytotoxicity in human astrocytes (viability) (human astrocytes) | Effect on [Ca2+]i level in Ca2+-free solution ([Ca^2+]i in U87 cells) | Effect on intracellular Ca2+ pool and ER Ca2+ transporting ([Ca^2+]i in U87 cells) | Effect on [Ca2+]i level ([Ca^2+]i in U87 cells) | Effect on intracellular Na+ [Na+]i level ([Na^+]i in U87 cells) | Effect on apoptosis (Annexin V+ cells), compound alone (U87 cells [2]) | IC50 (U87 cells [1]) | IC50 (U251 cells) |
| --- | --- | --- | --- | --- | --- | --- | --- | --- | --- | --- | --- | --- |
| CC(C)COCC(CN(Cc1ccccc1)c1ccccc1)N1CCCC1 (stereo not drawn) [Bepridil, N‐benzyl‐N‐(3‐isobutoxy‐2‐pyrrolidin‐1‐yl‐propyl)aniline] | markedly suppressed growth | 18.6 ± 1.1 µM | markedly suppressed growth | 14.9 ± 1.1 µM | did not generate apparent cytotoxicity | did not show [Ca^2+]i elevation or fluctuation | neither bepridil nor KB‐R7943 affect intracellular Ca^2+ pool and Ca^2+ transporting on the ER membrane | quick [Ca^2+]i increase and sustained [Ca^2+]i elevation | did not change | time‐dependent increase of apoptotic (Annexin V^+) cells |  |  |
| CS(=O)(=O)O.N=C(N)SCCc1ccc(OCc2ccc([N+](=O)[O-])cc2)cc1 [KB‐R7943, 2‐[4‐[(4‐nitrophenyl)methoxy]phenyl]ethyl ester carbamimidothioic acid methanesulfonate] |  |  |  |  | deleterious to astrocytes | did not show [Ca^2+]i elevation or fluctuation | neither bepridil nor KB‐R7943 affect intracellular Ca^2+ pool and Ca^2+ transporting on the ER membrane | a short [Ca^2+]i descent in the beginning and a slow [Ca^2+]i increases ensuing | slightly decreased | caused G0/G1 arrest and apoptosis | 26.6 ± 1.4 µM | 29.2 ± 1.1 µM |
